Reference: doi:10.1101/2025.08.13.670122v1 (bioRxiv, 2025)
Peptide text beside a SMILES is read from it.

Columns and labels:
AT1R [1] = molecular target: T1, AT1R (Homo sapiens, UniProt P30556); assay: Gαq activation BRET (GABY sensor) in HEK293 cells expressing AT1R; assay type: cell-based; design: expressed in transfected cells; host or cells: HEK293 cells, transient PEI transfection; settings: for Emax Gαq (% AngII): HEK293/AT1R, GABY BRET sensor, response of the ligand at 10 μM, normalised to AngII; for EC50: HEK293 cells transiently expressing human AT1R, Gαq-RlucII/Gβ1/Gγ1-GFP10 (GABY) BRET sensor, BRET read 10 min after ligand, mean ± SEM of at least three to five independent experiments
T1 sequence (P30556 1-359): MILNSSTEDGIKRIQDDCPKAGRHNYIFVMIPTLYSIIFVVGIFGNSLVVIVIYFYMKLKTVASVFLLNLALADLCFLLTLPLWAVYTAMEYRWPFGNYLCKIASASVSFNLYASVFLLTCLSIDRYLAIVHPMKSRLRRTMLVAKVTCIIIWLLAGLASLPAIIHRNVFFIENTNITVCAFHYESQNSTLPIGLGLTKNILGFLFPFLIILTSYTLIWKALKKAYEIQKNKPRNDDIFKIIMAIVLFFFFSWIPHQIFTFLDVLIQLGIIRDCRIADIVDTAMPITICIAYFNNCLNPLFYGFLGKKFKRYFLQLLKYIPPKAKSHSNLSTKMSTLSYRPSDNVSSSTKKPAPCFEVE
Description: (§1) We utilized a clonal cell line HEK293, referred to hereafter as HEK293 cells, which has been previously described.[7],[8] As a gracious gift from A. Inoue (Tohoku University, Sendai, Miyagi, Japan), CRISPR Gαq/11 and Gα12/13 knockout cell lines (ΔGq/11 and ΔG12/13, respectively), were derived as previously explained.[48] In brief, a CRISPR-Cas9 system was used to target either GNAQ and GNA11 or GNA12 and GNA13 genes in HEK293T cells simultaneously to generate the Gαq/11 and Gα12/13 knockout cell lines. For the production of adenovirus, we utilized HEK293A cells. All cells were grown in DMEM supplemented with 10% FBS and Penicillin-Streptomycin-L-Glutamine (10000 IU penicillin, 10000 µg/mL Streptomycin, 200 mM L-Glutamine) at 37°C in T175 flasks under a 5% CO2 humidified chamber. Periodic testing was carried out for mycoplasma contamination (ABM™, Mycoplasma PCR Detection kit). For all biosensors used, cells underwent transfection with the PEI reagent, employing a PEI:DNA ratio of 3:1. For the Gαq biosensor, HEK293 cells were transfected with the plasmids coding for Gαq-RLucII (120 ng), Gβ1 (3000 ng), Gγ1-GFP10 (3000 ng), human AT1 (3000 ng) and Salmon sperm DNA (SSD) (880 ng). For the β-arrestin2 recruitment assay, HEK293 cells were transfected with the plasmids coding for 120 ng β-arrestin-2-RLucII, 3000 ng AT1, 3000 ng rGFP-CAAX, and 3880 ng SSD. For the measurement of PKC, HEK293 cells were transfected with 3000 ng AT1, 600 ng PKC-c1b, and 6400 ng SSD. […] 100 µL of the cell/DNA mixture was added to white 96-well plates and incubated at 37°C at 5% CO2 for 48 h. For the Rho assay, ΔG12/13 cells were seeded at a density of 9,000 cells per well in poly-ornithine-coated white 96-well plates and transfected the following day. In brief, 1 μg of total DNA in 100 μL of PBS was mixed with 100 μL of PBS containing 3 μL of 1 mg/mL PEI. For Rho signaling, 150 ng of AT1R DNA with 25 ng of PKN-RBD-RlucII [8], and 100 ng of rGFP-CAAX were used. Empty pcDNA was used to reach 1 µg of the total DNA amount in 100 μL of PBS. The DNA was then mixed with 100 μL of PBS containing 3 μL of 1 mg/mL PEI. After a 20-min incubation, the DNA/PEI complexes were dispensed into cells in 96-well plates (15 µL/well), and the experiment was carried out 48 h post-transfection.
(§2) On the day of the experiment, each well was washed with 80 µL of Tyrode’s buffer (140 mM NaCl, 2.7 mM KCl, 1 mM CaCl2, 12 mM NaHCO3, 5.6 mM D-glucose, 0.5 mM MgCl2, 0.37 mM NaH2PO4, 25 mM Hepes (pH 7.4)). This was followed by incubation for 1 h in Tyrode’s buffer at room temperature. For the Gαq, β-arrestin-2, and PKC biosensors used in HEK293 cells, coelenterazine 400A (at a final concentration of 5 μM) was added 10 min before stimulation. Cells were then stimulated with increasing doses of the indicated ligand, and BRET signals were measured using a Tristar2 (Berthold) microplate reader 10 min later. For the PKC and Rho biosensors in VSMCs, and the Rho biosensor in ΔG12/13 cells, cells were similarly stimulated with ligands for 1 min, 1 min 30 s, and 3 min, respectively, before BRET measurement. […] BRET signals were then measured using a Synergy2 (BioTek) microplate reader. The applied filter set was 410/80 nm and 515/30 nm, designed to detect the light emissions of RlucII (Renilla luciferase) (donor) and rGFP (acceptor), respectively.

AT1R [2] = molecular target: T1, AT1R; assay: β-arrestin2 recruitment BRET (β-arrestin2-RLucII/rGFP-CAAX) in HEK293 cells expressing AT1R; assay type: cell-based; design: expressed in transfected cells; host or cells: HEK293 cells, transient PEI transfection; settings: for Emax βarr2 (% AngII): HEK293/AT1R, β-arrestin2 BRET, response of the ligand at 10 μM, normalised to AngII; for EC50: HEK293 cells transiently expressing AT1R, β-arrestin2-RLucII/rGFP-CAAX BRET, read 10 min after ligand, mean ± SEM of at least three to five independent experiments, SEM, read-out: EC50 βarr2
Description: as §1, §2

| Emax Gαq (% AngII) (AT1R [1]) | EC50 (AT1R [1]) [nM] | EC50 (AT1R [1]; SEM) [nM] | Emax βarr2 (% AngII) (AT1R [2]) | EC50 (AT1R [2]) [nM] | Compound |
| --- | --- | --- | --- | --- | --- |
| 48 | – | 6.9 ± 2.6 | 101 | 2.2 ± 0.4 | CC[C@H](C)[C@H](NC(=O)[C@H](Cc1ccc(O)cc1)NC(=O)[C@@H](NC(=O)[C@H](CCCNC(=N)N)NC(=O)[C@@H](N)CC(=O)O)C(C)C)C(=O)N[C@@H](Cc1c[nH]cn1)C(=O)N1CCC[C@H]1C(=O)N[C@@H](Cc1ccccn1)C(=O)O [compound 19] |
| 29 | – | 14 ± 13 | 97 | 1.9 ± 0.3 | CC[C@H](C)[C@H](NC(=O)[C@H](Cc1ccc(O)cc1)NC(=O)[C@@H](NC(=O)[C@H](CCCNC(=N)N)NC(=O)[C@@H](N)CC(=O)O)C(C)C)C(=O)N[C@@H](Cc1c[nH]cn1)C(=O)N1CCC[C@H]1C(=O)N[C@@H](Cc1cscn1)C(=O)O [compound 20] |
| – | – | 4.7 ± 1.1 | – | 2.2 ± 0.4 | CC[C@H](C)[C@H](NC(=O)[C@H](Cc1ccc(O)cc1)NC(=O)[C@@H](NC(=O)[C@H](CCCN=C(N)N)NC(=O)[C@@H](N)CC(=O)O)C(C)C)C(=O)N[C@@H](Cc1c[nH]cn1)C(=O)N1CCC[C@H]1C(=O)N[C@@H](Cc1c[nH]c2ccccc12)C(=O)O [compound 21] (H-DRVYIHPW-OH) |
| 91 | – | – | 107 | – | CC[C@H](C)[C@H](NC(=O)[C@H](Cc1ccc(O)cc1)NC(=O)[C@@H](NC(=O)[C@H](CCCNC(=N)N)NC(=O)[C@@H](N)CC(=O)O)C(C)C)C(=O)N[C@@H](Cc1c[nH]cn1)C(=O)N1CCC[C@H]1C(=O)N[C@@H](Cc1c[nH]c2ccccc12)C(=O)O [compound 21] (H-DRVYIHPW-OH; N-terminus assumed) |

The next lines start with the compound.

| Compound | Emax Gαq (% AngII) (AT1R [1]) | EC50 (AT1R [1]) [nM] | EC50 (AT1R [1]; SEM) [nM] | Emax βarr2 (% AngII) (AT1R [2]) | EC50 (AT1R [2]) [nM] |
| --- | --- | --- | --- | --- | --- |
| CC[C@H](C)[C@H](NC(=O)[C@H](Cc1ccc(O)cc1)NC(=O)[C@@H](NC(=O)[C@H](CCCNC(=N)N)NC(=O)[C@@H](N)CC(=O)O)C(C)C)C(=O)N[C@@H](Cc1c[nH]cn1)C(=O)N1CCC[C@H]1C(=O)N[C@@H](COCc1ccccc1)C(=O)O [compound 16] | 26 | > 10000 | 2.3 ± 4 | 87 | 3 ± 0.5 |
| CC[C@H](C)[C@H](NC(=O)[C@H](Cc1ccc(O)cc1)NC(=O)[C@@H](NC(=O)[C@H](CCCNC(=N)N)NC(=O)[C@@H](N)CC(=O)O)C(C)C)C(=O)N[C@@H](Cc1c[nH]cn1)C(=O)N1CCC[C@H]1C(=O)N[C@@H](Cc1ccncc1)C(=O)O [compound 17] | 37 | – | 7.5 ± 6.3 | 105 | 5.2 ± 1 |
| CC[C@H](C)[C@H](NC(=O)[C@H](Cc1ccc(O)cc1)NC(=O)[C@@H](NC(=O)[C@H](CCCNC(=N)N)NC(=O)[C@@H](N)CC(=O)O)C(C)C)C(=O)N[C@@H](Cc1c[nH]cn1)C(=O)N1CCC[C@H]1C(=O)N[C@@H](Cc1cccnc1)C(=O)O [compound 18] | 31 | – | 22 ± 11 | 90 | 3.7 ± 0.7 |
